From patent US20260374766A1, “METHODS FOR TREATING CANCER” (Antares Therapeutics, Inc., priority 2022, published 2026)
Like-named read-outs stand apart in the source and are kept apart here.

Legend:
NUGC3 p53 Y220C = assay: Cell Proliferation Assay (CellTiter-Glo, CTG), NUGC3 p53 Y220C; type: cell-based; conditions: Homo sapiens, NUGC-3, 120 h, 5 days, CellTiter-Glo
Outline: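 NClH1299 lines stably transduced with Tet-inducible p53 Y220C or R273H, plus NUGC3, were treated with compound for 5 days at 250-500 cells/well. IC50 derived from CellTiter-Glo luminescent signal after 10 min room-temperature incubation.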

H1299 p53 Y220C = assay: Cell Proliferation Assay (CellTiter-Glo, CTG), H1299 p53 Y220C (NClH1299-inducible p53 Y220C); type: cell-based; conditions: Homo sapiens, NCI-H1299, 120 h, 5 days, CellTiter-Glo
Outline: (§1)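 Tet-One inducible p53 Y220C or R273H constructs were stably introduced into NCI-H1299 by lentiviral transduction; NUGC3 was used as is. Cells (250-500 per well) were exposed to compound for 5 days, then CellTiter-Glo was added for 10 min at room temperature and IC50 was calculated from luminescence.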

H1299 p53 R273H = assay: Cell Proliferation Assay (CellTiter-Glo, CTG), H1299 p53 R273H (NClH1299-inducible p53 R273H); type: cell-based; conditions: Homo sapiens, NCI-H1299, 120 h, 5 days, CellTiter-Glo
Outline: as §1

[1] = molecular target: T1, p53 Y220C mutant protein (amino acid residues 94-293) (Homo sapiens, UniProt P04637, Y220C); assay: Thermal Shift Assay (TSA), dTM; type: binding; conditions: for ΔTm at 10 µM: 10 uM compound; for ΔTm at 100 µM: 100 uM compound
T1 construct: p53 Y220C mutant protein (amino acid residues 94-293)
Outline: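 Sypro Orange melt (30→50 °C, 0.03 °C/s) with TM taken from a Boltzmann two-state fit. Protein (residues 94-293) at 5 μM was pre-incubated 3 h at 20 °C with compound at 10 μM or 100 μM in pH 7.4 HEPES/NaCl buffer containing 0.01% Pluronic F-127 and 1% DMSO.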

p53 Y220C = p53 Y220C (Homo sapiens, UniProt P04637, Y220C); assay: Luciferase Reporter Assay (Luc), p53 response element, NClH1299 cells with inducible p53 Y220C; type: cell-based; conditions: luciferase reporter, NClH1299 inducible p53 Y220C, 6 hour; for AC50: read-out: Luc P53 Y220C AC50
Outline: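 Cells were seeded at 5,000 per well and induced with 0.5 ug/mL doxycycline for 24 hours, then exposed to compound for 6 hours. One-Glo reagent was added, plates shaken 5 minutes at room temperature, and luminescence read immediately.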

[2] = molecular target: T1, p53 Y220C mutant protein (amino acid residues 94-293); assay: Surface Plasmon Resonance (SPR) assay, Kd_kinetic; type: binding; conditions: read-out: SPR P53 Y220C KD kinetic
Outline: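 Kd values come from fitting sensorgrams to a 1:1 binding model. Sensorgrams were recorded on a Biacore 8K at 16 or 20 °C in pH 7.5 Tris buffer with 100 mM NaCl, 1 mM DTT, detergents and 1% DMSO.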

[3] = NClH1299-inducible p53 Y220C cells
[4] = NClH1299-inducible p53 R273H cells
[5] = p53 Y220C, read-out: TSA P53 Y220C dTM
[6] = thermal shift, read-out: TSA P53 Y220C dTM (10 uM)
[7] = thermal shift, read-out: TSA P53 Y220C dTM (100 uM)
[8] = 10 uM tool compound as positive control

| Structure (SMILES) | IC50 (NUGC3 p53 Y220C; NUGC3 cells) | IC50 (H1299 p53 Y220C; [3]) | IC50 (H1299 p53 R273H; [4]) | ΔTm at 10 µM [1, 5] | ΔTm at 100 µM [1, 5] | AC50 (p53 Y220C; AC50) | Emax (p53 Y220C; Emax) | Kd ([2]; SPR, p53 Y220C) | IC50 (NUGC3 p53 Y220C; NUGC3 p53 Y220C) | IC50 (H1299 p53 Y220C; H1299 p53 Y220C) | IC50 (H1299 p53 R273H; H1299 p53 R273H) | ΔTm at 10 µM [1, 6] | ΔTm at 100 µM [1, 7] | Emax (p53 Y220C; [8]) | AC50 (p53 Y220C) | Kd ([2]; SPR, kinetic KD, p53 Y220C) | Kd [2] |
| --- | --- | --- | --- | --- | --- | --- | --- | --- | --- | --- | --- | --- | --- | --- | --- | --- | --- |
| CNC(=O)c1ccc(OC)c(NCC#Cc2nn3c(N[C@@H]4CCNC[C@@H]4F)cccc3c2SC(F)(F)F)c1 [Example 236] | < 750 nM | < 750 nM | 5000 to 8000 nM | ≥ 10 °C | ≥ 10 °C | < 750 nM | 80 to 90% | < 10 nM | – | – | – | – | – | – | – | – | – |
| CNC(=O)c1ccc(OC)c(NCC#Cc2nn3c(N[C@@H]4CCN(C)C[C@@H]4F)cccc3c2SC(F)(F)F)n1 [Example 234] | < 750 nM | < 750 nM | 8000 to 10000 nM | ≥ 10 °C | – | < 750 nM | 80 to 90% | < 10 nM | – | – | – | – | – | – | – | – | – |
| CNC(=O)c1ccc(NCC#Cc2nn3c(N[C@@H]4CCN(C)C[C@@H]4F)cccc3c2SC(F)F)c(OC)c1 [Example 219, 4-[(3-{3-[(difluoromethyl)sulfanyl]-7-{[(3S,4R)-3-fluoro-1-methylpiperidin-4-yl]amino}pyrazolo[1,5-a]pyridin-2-yl}prop-2-yn-1-yl)amino]-3-methoxy-N-methylbenzamide] | – | – | – | – | – | – | – | – | < 750 nM | < 750 nM | 5000 to 8000 nM | 5 to 10 °C | 5 to 10 °C | 80 to 90% | < 750 nM | < 10 nM | – |
| CNC(=O)c1ccc(NCC#Cc2nc3c(N[C@@H]4CCN(C)C[C@@H]4F)cccn3c2CC(F)(F)F)c(C2CC2)c1 [Example 57, 3-cyclopropyl-4-{[3-(8-{[(3S,4R)-3-fluoro-1-methylpiperidin-4-yl]amino}-3-(2,2,2-trifluoroethyl)imidazo[1,2-a]pyridin-2-yl)prop-2-yn-1-yl]amino}-N-methylbenzamide] | – | – | – | – | – | – | – | – | > 3000 nM | > 3000 nM | ≥ 10000 nM | – | ≥ 10 °C | 70 to 80% | > 3000 nM | 10 to 100 nM | – |
| COc1cc(S(C)(=O)=O)ccc1NCC#Cc1nn2c(N[C@@H]3CCNC[C@@H]3F)cccc2c1SC(F)(F)F [Example 238] | < 750 nM | < 750 nM | 5000 to 8000 nM | ≥ 10 °C | – | < 750 nM | 80 to 90% | < 10 nM | – | – | – | – | – | – | – | – | – |
| CCNC(=O)c1ccc(NCC#Cc2nc3c(N[C@@H]4CCN(C)C[C@@H]4F)cccn3c2CC(F)(F)F)c(OC)c1 [Example 47, N-ethyl-4-{[3-(8-{[(3S,4R)-3-fluoro-1-methylpiperidin-4-yl]amino}-3-(2,2,2-trifluoroethyl)imidazo[1,2-a]pyridin-2-yl)prop-2-yn-1-yl]amino}-3-methoxybenzamide] | – | – | – | – | – | – | – | – | > 3000 nM | 1500 to 3000 nM | ≥ 10000 nM | – | ≥ 10 °C | 70 to 80% | > 3000 nM | 10 to 100 nM | – |
| CNC(=O)c1ccc(OC)c(NCC#Cc2nn3c(N[C@@H]4CCN(C)C[C@@H]4F)cccc3c2SC(F)(F)F)c1 [Example 231] | < 750 nM | < 750 nM | 5000 to 8000 nM | ≥ 10 °C | ≥ 10 °C | < 750 nM | 80 to 90% | < 10 nM | – | – | – | – | – | – | – | – | – |
| CNC(=O)c1ccc(NCC#Cc2nc3c(NC4CC5(C4)CN(CC(F)F)C5)cccn3c2SC(F)(F)F)c(OC)c1 [Example 173] | – | – | – | – | – | – | – | – | 1500 to 3000 nM | 750 to 1500 nM | 5000 to 8000 nM | 5 to 10 °C | 5 to 10 °C | 70 to 80% | 750 to 1500 nM | 10 to 100 nM | – |
| CNC(=O)c1ccc(NCC#Cc2nc3c(N[C@@H]4C[C@H]5CC[C@H](N5)[C@@H]4F)cccn3c2SC(F)(F)F)c(OC)c1 [Example 324, 4-{[3-(8-{[(1S,2S,3R,5R)-2-fluoro-8-azabicyclo[3.2.1]octan-3-yl]amino}-3-[(trifluoromethyl)sulfanyl]imidazo[1,2-a]pyridin-2-yl)prop-2-yn-1-yl]amino}-3-methoxy-N-methylbenzamide] | < 750 nM | < 750 nM | 5000 to 8000 nM | ≥ 10 °C | ≥ 10 °C | < 750 nM | 80 to 90% | < 10 nM | – | – | – | – | – | – | – | – | – |
| CNC(=O)c1ccc(OC)c(NCC#Cc2cc3c(N[C@@H]4CCN(C)C[C@@H]4F)nccn3c2SC(F)(F)F)c1 [Example 156, 3-{[3-(1-{[(3S,4R)-3-fluoro-1-methylpiperidin-4-yl]amino}-6-[(trifluoromethyl)sulfanyl]pyrrolo[1,2-a]pyrazin-7-yl)prop-2-yn-1-yl]amino}-4-methoxy-N-methylbenzamide] | – | – | – | – | – | – | – | – | < 750 nM | < 750 nM | 8000 to 10000 nM | ≥ 10 °C | ≥ 10 °C | > 90% | < 750 nM | < 10 nM | – |
| COc1cc(C(=O)N2CCOCC2)ccc1NCC#Cc1nc2c(N[C@@H]3CCN(C)C[C@@H]3F)cccn2c1SC(F)(F)F [Example 119] | – | – | – | – | – | – | – | – | < 750 nM | < 750 nM | ≥ 10000 nM | ≥ 10 °C | ≥ 10 °C | 80 to 90% | < 750 nM | – | < 10 nM |
| CNC(=O)c1ccc(NCC#Cc2nc3c(N[C@@H]4CCN(C)C[C@@H]4F)cccn3c2CC(F)(F)F)c(OCCOC)c1 [Example 62, 4-{[3-(8-{[(3S,4R)-3-fluoro-1-methylpiperidin-4-yl]amino}-3-(2,2,2-trifluoroethyl)imidazo[1,2-a]pyridin-2-yl)prop-2-yn-1-yl]amino}-3-(2-methoxyethoxy)-N-methylbenzamide] | – | – | – | – | – | – | – | – | 750 to 1500 nM | 750 to 1500 nM | ≥ 10000 nM | – | ≥ 10 °C | 70 to 80% | 750 to 1500 nM | < 10 nM | – |
| CNC(=O)c1ccc(NCC#Cc2nc3c(N[C@@H]4CCN(C)C[C@@H]4F)cccn3c2SC(F)(F)F)c(OC)n1 [Example 93, 5-{[3-(8-{[(3S,4R)-3-fluoro-1-methylpiperidin-4-yl]amino}-3-[(trifluoromethyl)sulfanyl]imidazo[1,2-a]pyridin-2-yl)prop-2-yn-1-yl]amino}-6-methoxy-N-methylpyridine-2-carboxamide] | – | – | – | – | – | – | – | – | < 750 nM | < 750 nM | 5000 to 8000 nM | – | ≥ 10 °C | > 90% | < 750 nM | < 10 nM | – |
| CNC(=O)c1ccc(NCC#Cc2nc3c(N[C@@H]4CCN(C)C[C@@H]4F)cccn3c2CC(F)(F)F)c(OC(F)F)c1 [Example 60, 3-(difluoromethoxy)-4-{[3-(8-{[(3S,4R)-3-fluoro-1-methylpiperidin-4-yl]amino}-3-(2,2,2-trifluoroethyl)imidazo[1,2-a]pyridin-2-yl)prop-2-yn-1-yl]amino}-N-methylbenzamide] | – | – | – | – | – | – | – | – | 1500 to 3000 nM | 1500 to 3000 nM | ≥ 10000 nM | – | ≥ 10 °C | 70 to 80% | > 3000 nM | < 10 nM | – |
| CCNC(=O)c1ccc(NCC#Cc2nc3c(N[C@@H]4CCN(C)C[C@@H]4F)cccn3c2SC(F)(F)F)c(OC)c1 [Example 85, N-ethyl-4-{[3-(8-{[(3S,4R)-3-fluoro-1-methylpiperidin-4-yl]amino}-3-[(trifluoromethyl)sulfanyl]imidazo[1,2-a]pyridin-2-yl)prop-2-yn-1-yl]amino}-3-methoxybenzamide] | – | – | – | – | – | – | – | – | < 750 nM | < 750 nM | 5000 to 8000 nM | – | ≥ 10 °C | 80 to 90% | < 750 nM | < 10 nM | – |
| CCNC(=O)c1cnc(OC)c(NCC#Cc2cc3c(N[C@@H]4CCN(C)C[C@@H]4F)nccn3c2SC(F)(F)F)c1 [Example 291] | < 750 nM | < 750 nM | ≥ 10000 nM | ≥ 10 °C | ≥ 10 °C | < 750 nM | > 90% | < 10 nM | – | – | – | – | – | – | – | – | – |
